In general, IC50 refers to the concentration that inhibits the measured activity by half. In general, Ki refers to a measure of affinity in units of concentration, obtained from inhibition or displacement.

In ChEMBL document CHEMBL1909046, “DrugMatrix in vitro pharmacology data” one finds IC50 and Ki data, which are given here for 16 compounds.

The target of assay [1] is T1, Alpha-1D adrenergic receptor (Homo sapiens, UniProt P25100). Note: in other assays of this panel Not Active means under 50% inhibition at 10 µM.
T1 sequence (P25100 whole entry): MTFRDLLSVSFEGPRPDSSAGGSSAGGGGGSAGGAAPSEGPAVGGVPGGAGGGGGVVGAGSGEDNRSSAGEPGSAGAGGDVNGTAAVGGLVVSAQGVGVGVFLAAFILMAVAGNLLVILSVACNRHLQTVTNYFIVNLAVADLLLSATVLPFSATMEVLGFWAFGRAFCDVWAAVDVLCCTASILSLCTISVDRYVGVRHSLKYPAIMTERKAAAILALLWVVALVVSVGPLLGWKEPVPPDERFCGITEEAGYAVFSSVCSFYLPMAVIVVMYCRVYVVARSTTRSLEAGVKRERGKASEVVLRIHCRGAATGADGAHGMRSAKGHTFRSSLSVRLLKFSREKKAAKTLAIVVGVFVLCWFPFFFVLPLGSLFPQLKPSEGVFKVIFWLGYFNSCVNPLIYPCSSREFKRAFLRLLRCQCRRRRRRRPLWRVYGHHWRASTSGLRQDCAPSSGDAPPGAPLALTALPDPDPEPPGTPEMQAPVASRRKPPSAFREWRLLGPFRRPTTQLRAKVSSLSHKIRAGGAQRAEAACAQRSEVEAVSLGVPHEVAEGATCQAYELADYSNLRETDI
Format: cell membranes, HEK293, Membrane.

Assay [2] addresses C-C chemokine receptor type 2 (Homo sapiens, UniProt P41597). Format: cell membranes, CHO-K1, Membrane. The conditions noted are these: cho-k1.
Assay [3] concerns the target T2, C-X-C chemokine receptor type 1 (Homo sapiens, UniProt P25024). Note: in other assays of this panel Not Active means under 50% inhibition at 10 µM.
T2 sequence (P25024 whole entry): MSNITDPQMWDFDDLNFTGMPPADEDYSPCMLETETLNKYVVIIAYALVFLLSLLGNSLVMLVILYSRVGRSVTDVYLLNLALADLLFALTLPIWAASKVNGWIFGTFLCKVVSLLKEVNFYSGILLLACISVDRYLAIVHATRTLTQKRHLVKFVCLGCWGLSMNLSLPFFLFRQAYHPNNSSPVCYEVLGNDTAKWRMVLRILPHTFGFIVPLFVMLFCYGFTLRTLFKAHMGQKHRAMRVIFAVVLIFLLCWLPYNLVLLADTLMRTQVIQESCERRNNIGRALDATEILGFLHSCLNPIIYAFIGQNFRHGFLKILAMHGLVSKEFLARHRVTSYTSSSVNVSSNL

A short description of assay [4]: DRUGMATRIX: GABAA, Chloride Channel, TBOB radioligand binding (ligand: [3H] TBOB). The conditions noted are these: Not Active = under 50% inhibition at 10 µM. Format: cell membranes, Rattus norvegicus, Wistar, Cerebral cortex, Membrane.
The nature of assay [5]: DRUGMATRIX: Glutamate, Kainate radioligand binding (ligand: [3H] Kainic acid). The assay is classed as cell membranes, Rattus norvegicus, Wistar, Brain, Membrane. As to conditions: Not Active = under 50% inhibition at 10 µM.
Assay [6] is described as follows: DRUGMATRIX: Glutamate, NMDA, Phencyclidine radioligand binding (ligand: [3H] TCP). Format: cell membranes, Rattus norvegicus, Wistar, Cerebral cortex, Membrane. The conditions noted are these: Not Active = under 50% inhibition at 10 µM.
Another assay concerns the target T3, Progesterone receptor (Bos taurus, UniProt Q690N0).
T3 sequence (Q690N0 whole entry): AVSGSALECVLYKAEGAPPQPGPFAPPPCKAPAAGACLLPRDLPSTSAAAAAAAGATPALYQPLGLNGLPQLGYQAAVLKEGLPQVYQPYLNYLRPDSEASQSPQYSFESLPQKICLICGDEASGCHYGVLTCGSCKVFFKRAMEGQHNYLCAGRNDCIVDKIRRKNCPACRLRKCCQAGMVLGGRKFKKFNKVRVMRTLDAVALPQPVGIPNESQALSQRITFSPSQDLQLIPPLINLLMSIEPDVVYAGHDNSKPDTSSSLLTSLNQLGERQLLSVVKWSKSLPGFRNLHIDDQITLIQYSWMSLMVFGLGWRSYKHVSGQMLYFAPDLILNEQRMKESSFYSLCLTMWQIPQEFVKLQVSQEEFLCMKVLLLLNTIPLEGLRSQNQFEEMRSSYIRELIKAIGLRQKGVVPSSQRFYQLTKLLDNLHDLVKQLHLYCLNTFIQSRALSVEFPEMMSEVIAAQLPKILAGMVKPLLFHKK
Briefly: DRUGMATRIX: Progesterone radioligand binding (ligand: [3H] R-5020). As to conditions: Not Active = under 50% inhibition at 10 µM; for Ki: read-out: Ki. The assay is classed as tissue-based, Uterus.

C-C chemokine receptor type 2, sequence (P41597 whole entry): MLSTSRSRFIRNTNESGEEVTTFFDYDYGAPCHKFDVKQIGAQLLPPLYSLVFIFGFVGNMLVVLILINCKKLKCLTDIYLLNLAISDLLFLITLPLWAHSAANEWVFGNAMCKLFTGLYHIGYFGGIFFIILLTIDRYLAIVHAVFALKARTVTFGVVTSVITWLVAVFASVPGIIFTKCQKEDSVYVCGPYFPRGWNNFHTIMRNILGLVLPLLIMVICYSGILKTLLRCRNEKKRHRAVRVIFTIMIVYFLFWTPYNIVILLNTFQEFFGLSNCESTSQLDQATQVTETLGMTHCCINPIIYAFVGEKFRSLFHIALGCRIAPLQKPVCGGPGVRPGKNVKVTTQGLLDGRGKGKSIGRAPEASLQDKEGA

As to `c1ccc2c(c1)c1cccc3ccc4cccc2c4c31` [BENZO[E]PYRENE], the IC50 entry in assay [1] (hek293), in assay [2], in assay [3], in assay [4], in assay [5] and in assay [6] was “Not Active” throughout. The concentration for half-maximal inhibition (IC50) entry at Progesterone receptor is recorded as “Not Active”. For the same compound, the inhibition constant Ki entry in assay [4], in assay [5] and in assay [6] was “Not Active” in each case.
For the compound `CNCCc1ccccn1` [BETAHISTINE], the IC50 entry in assay [1] (hek293), in assay [2], in assay [3], in assay [4], in assay [5] and in assay [6] was “Not Active” each time. Moreover, the half-inhibitory concentration (IC50) entry on Progesterone receptor is given as “Not Active”. In addition, the Ki result in assay [4], in assay [5] and in assay [6] was “Not Active” throughout.
On to `CC(C)C(Br)C(=O)NC(N)=O` (stereo not drawn) [BROMISOVALUM], for which the IC50 entry in assay [1] (hek293), in assay [2], in assay [3], in assay [4], in assay [5] and in assay [6] was “Not Active” each time. For the same compound, the half-maximal inhibitory concentration (IC50) entry on Progesterone receptor was “Not Active”. Besides, the Ki entry in assay [4], in assay [5] and in assay [6] was “Not Active” throughout.
`CCCC1O[C@@H]2C[C@H]3[C@@H]4CCC5=CC(=O)C=C[C@]5(C)[C@H]4[C@@H](O)C[C@]3(C)[C@]2(C(=O)CO)O1` (stereo partly drawn) [BUDESONIDE]: the 50% inhibitory concentration (IC50) entry in assay [1] (hek293), in assay [2], in assay [3], in assay [4], in assay [5] and in assay [6] was “Not Active” each time. For the same compound, the IC50 on Progesterone receptor (read-out: IC50) amounted to 210 nM. Besides, the Ki entry is “Not Active” in assay [4], “Not Active” in assay [5], “Not Active” in assay [6] and 27 nM on Progesterone receptor.
As to `CC(NC(C)(C)C)C(=O)c1cccc(Cl)c1` (stereo not drawn) [BUPROPION], the half-inhibitory concentration (IC50) entry in assay [1] (hek293), in assay [2], in assay [3], in assay [4], in assay [5] and in assay [6] was “Not Active” throughout. On Progesterone receptor, the IC50 entry is “Not Active”. Besides, the inhibition constant Ki result in assay [4], in assay [5] and in assay [6] was “Not Active” throughout.
Consider `CN(Cc1ccc(C(C)(C)C)cc1)Cc1cccc2ccccc12` [BUTENAFINE], for which the half-maximal inhibitory concentration (IC50) entry in assay [1] (hek293), in assay [2], in assay [3], in assay [4], in assay [5] and in assay [6] was “Not Active” throughout. Moreover, on Progesterone receptor, the IC50 entry is given as “Not Active”. The inhibition constant Ki result in assay [4], in assay [5] and in assay [6] was “Not Active” throughout.
Consider `C[C@H](CS)C(=O)N1CCC[C@H]1C(=O)O` [CAPTOPRIL], for which the 50% inhibitory concentration (IC50) result in assay [1] (hek293), in assay [2], in assay [3], in assay [4], in assay [5] and in assay [6] was “Not Active” each time. The half-maximal inhibitory concentration (IC50) entry at Progesterone receptor is reported as “Not Active”. Further, the Ki entry in assay [4], in assay [5] and in assay [6] was “Not Active” each time.
On to `Cc1ccc(-c2cc(C(F)(F)F)nn2-c2ccc(S(N)(=O)=O)cc2)cc1` [CELECOXIB], for which the half-maximal inhibitory concentration (IC50) entry in assay [1] (hek293), in assay [2], in assay [3], in assay [4], in assay [5] and in assay [6] was “Not Active” throughout. The concentration for half-maximal inhibition (IC50) at Progesterone receptor (read-out: IC50) was found to be 18100 nM. The inhibition constant (Ki) result is “Not Active” in assay [4], “Not Active” in assay [5], “Not Active” in assay [6] and 2360 nM on Progesterone receptor.
As for `O=C(O)CCCc1ccc(N(CCCl)CCCl)cc1` [CHLORAMBUCIL], the IC50 result in assay [1] (hek293), in assay [2], in assay [3], in assay [4], in assay [5] and in assay [6] was “Not Active” each time. At Progesterone receptor, the IC50 result was “Not Active”. The Ki entry in assay [4], in assay [5] and in assay [6] was “Not Active” each time.
For the compound `C[C@H](CCC(=O)O)[C@H]1CC[C@H]2[C@@H]3[C@H](O)C[C@@H]4C[C@H](O)CC[C@]4(C)[C@H]3C[C@H](O)[C@]12C` [CHOLIC ACID], the IC50 result in assay [1] (hek293), in assay [2], in assay [3], in assay [4], in assay [5] and in assay [6] was “Not Active” throughout. For the same compound, the IC50 entry on Progesterone receptor is “Not Active”. For the same compound, the inhibition constant Ki result in assay [4], in assay [5] and in assay [6] was “Not Active” throughout.
For the compound `Cc1cc(C2CCCCC2)n(O)c(=O)c1` [CICLOPIROX], the 50% inhibitory concentration (IC50) entry in assay [1] (hek293), in assay [2], in assay [3], in assay [4], in assay [5] and in assay [6] was “Not Active” in each case. For the same compound, at Progesterone receptor, the IC50 entry was “Not Active”. The Ki result in assay [4], in assay [5] and in assay [6] was “Not Active” throughout.
As for `CC1=C2C(=CO[C@H](C)[C@H]2C)C(O)=C(C(=O)O)C1=O` [CITRININ], the IC50 entry in assay [1] (hek293), in assay [2], in assay [3], in assay [4], in assay [5] and in assay [6] was “Not Active” each time. Also, at Progesterone receptor, the IC50 result is listed as “Not Active”. The inhibition constant (Ki) result in assay [4], in assay [5] and in assay [6] was “Not Active” throughout.
`CC(C)(C)NCC(O)c1cc(Cl)c(N)c(Cl)c1` (stereo not drawn) [CLENBUTEROL]: the IC50 entry in assay [1] (hek293), in assay [2], in assay [3], in assay [4], in assay [5] and in assay [6] was “Not Active” each time. Also, the half-maximal inhibitory concentration (IC50) result at Progesterone receptor is on record as “Not Active”. Besides, the Ki result in assay [4], in assay [5] and in assay [6] was “Not Active” throughout.
For `CC(C)(Oc1ccc(Cl)cc1)C(=O)O` [CLOFIBRIC ACID], the 50% inhibitory concentration (IC50) entry in assay [1] (hek293), in assay [2], in assay [3], in assay [4], in assay [5] and in assay [6] was “Not Active” in each case. Further, the IC50 entry at Progesterone receptor is “Not Active”. Further, the Ki result in assay [4], in assay [5] and in assay [6] was “Not Active” in each case.
In the case of `Clc1cccc(Cl)c1NC1=NCCN1` [CLONIDINE], the IC50 is 1210 nM in assay [1] (read-out: IC50); “Not Active” in assay [2]; “Not Active” in assay [3]; “Not Active” in assay [4]; “Not Active” in assay [5]; “Not Active” in assay [6]. Also, the IC50 entry on Progesterone receptor was “Not Active”. Further, the Ki in assay [1] (read-out: Ki) is 595 nM; in assay [4], “Not Active”; in assay [5], “Not Active”; in assay [6], “Not Active”.
`Cc1cc(C(C#N)c2ccc(Cl)cc2)c(Cl)cc1NC(=O)c1cc(I)cc(I)c1O` (stereo not drawn) [CLOSANTEL]: the IC50 result in assay [1] (hek293), in assay [2], in assay [3], in assay [4], in assay [5] and in assay [6] was “Not Active” in each case. Further, at Progesterone receptor, the 50% inhibitory concentration (IC50) entry is reported as “Not Active”. Further, the inhibition constant (Ki) result in assay [4], in assay [5] and in assay [6] was “Not Active” throughout.
